The source of these data is patent publication US20260376293A1, “METHODS FOR STUDYING GPR158 PHARMACOLOGY AND IDENTIFICATION OF ITS LIGANDS” (UNIVERSITY OF FLORIDA RESEARCH FOUNDATION, INCORPORATED, priority 2022, published 2026).

The target of this assay is T1, GPR158 (Homo sapiens, UniProt Q5T848).
T1 sequence (Q5T848 24-1215): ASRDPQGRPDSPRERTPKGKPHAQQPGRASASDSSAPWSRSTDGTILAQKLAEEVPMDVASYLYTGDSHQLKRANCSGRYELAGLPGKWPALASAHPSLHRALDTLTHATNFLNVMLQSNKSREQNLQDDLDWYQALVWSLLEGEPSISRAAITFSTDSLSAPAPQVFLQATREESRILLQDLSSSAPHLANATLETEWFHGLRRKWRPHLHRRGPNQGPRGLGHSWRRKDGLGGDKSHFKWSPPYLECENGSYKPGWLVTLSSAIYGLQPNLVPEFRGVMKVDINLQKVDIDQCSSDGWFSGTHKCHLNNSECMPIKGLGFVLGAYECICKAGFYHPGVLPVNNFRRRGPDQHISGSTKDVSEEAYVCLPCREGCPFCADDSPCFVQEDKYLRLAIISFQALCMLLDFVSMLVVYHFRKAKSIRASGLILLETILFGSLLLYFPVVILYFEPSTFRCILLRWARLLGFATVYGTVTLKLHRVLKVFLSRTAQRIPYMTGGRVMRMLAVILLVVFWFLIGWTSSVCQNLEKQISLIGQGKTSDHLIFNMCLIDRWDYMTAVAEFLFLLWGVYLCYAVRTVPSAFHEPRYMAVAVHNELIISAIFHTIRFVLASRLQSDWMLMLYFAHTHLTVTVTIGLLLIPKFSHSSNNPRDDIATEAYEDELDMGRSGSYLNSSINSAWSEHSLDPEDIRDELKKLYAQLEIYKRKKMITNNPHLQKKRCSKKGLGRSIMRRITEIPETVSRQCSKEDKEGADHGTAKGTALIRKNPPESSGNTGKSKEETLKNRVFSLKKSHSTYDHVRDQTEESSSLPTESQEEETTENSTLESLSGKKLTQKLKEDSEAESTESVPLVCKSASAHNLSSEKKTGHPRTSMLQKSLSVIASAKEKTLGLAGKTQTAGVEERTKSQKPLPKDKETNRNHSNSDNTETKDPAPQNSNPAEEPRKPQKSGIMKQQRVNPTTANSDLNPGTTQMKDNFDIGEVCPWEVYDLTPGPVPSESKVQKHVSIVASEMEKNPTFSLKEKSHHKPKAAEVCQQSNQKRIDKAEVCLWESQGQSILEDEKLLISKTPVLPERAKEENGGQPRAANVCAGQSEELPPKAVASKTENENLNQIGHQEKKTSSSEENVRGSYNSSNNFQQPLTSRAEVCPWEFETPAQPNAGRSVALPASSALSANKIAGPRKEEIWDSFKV
Kind of assay: BRET cAMP assay in U87 glioblastoma cells expressing GPR158. Particulars: glycine 100 μM. Details: expressed in transfected cells; host or cells: HEK293FT. Format: cell-based. The source says: FIGS. 1A-1E Identification of glycine as GPR158 ligand. A) 3D model of the GPR158 cache domain with putative ligand-binding pocket is shown as surface presentation with cartoon representation at the background. B) Schematic of the screening assay design. C) Quantification of cAMP changes mediated by GPR158. BRET signal in response to amino acid application detected in control cells is subtracted from the signal from cells expressing GPR158 and the difference is plotted. Dotted lines denote 2×SD confidence interval. Data shown represent mean±s.e.m. determined from 3 independent experiments performed in triplicate. D) Time course of cAMP change induced with 10 μM of forskolin in glioblastoma cells (U87 MG) in response to glycine (100 μM) application (arrow) in empty cells (control) or cells expressing indicated components. E) Quantification of maximal amplitudes of responses to glycine in panel d. Data shown represent mean±s.e.m. determined from 3 independent experiments performed in triplicate. **p<0.01 (one-way ANOVA).
To study this effect in more detail the inventors analyzed the individual responses to glycine in a kinetic mode.
HEK293FT cells were seeded in a white flat-bottom 96 well plate (Greiner Bio-One) at 50,000 cells per well and transiently transfected using Metafectene Pro with the manufacturer instruction. […] BRET measurements were made in living cells using a microplate reader (PHERAstar FSX; BMG Labtech) equipped with two emission photomultiplier tubes. […]
HEK293FT cells or U87 MG cells (ATCC HTB-14) when indicated were co-transfected with the CAMP sensor Camyel and with untagged receptors (respectively: empty vector, GPR158). BRET ratio was determined by calculating the ratio of the light emitted by RLuc (475 nm with a 30 nm band path width) over the light emitted by the Venus (535 nm with a 30 nm band path width) in order to measure an increase of the signal when cAMP increase. ΔBRET was calculated by subtracting the ctrl cell BRET result from GPR158 expressing cells BRET result in order to get specifically the signal from GPR158 removing all the non-specific signal. […]
(BRET reads energy transfer from a luciferase to a nearby fluorophore.)

As to `NCC(=O)O` [glycine], the “cAMP change in cells lacking GPR158” value (U87 cells without GPR158) is “No glycine-induced changes in cAMP”. For the same compound, the “cAMP change with co-expressed RGS7/Gβ5” value (U87 cells, GPR158 + RGS7/Gβ5) is “further potentiated”. Also, the cAMP change entry (U87 glioblastoma cells expressing GPR158, forskolin 10 μM) was “resulted in cAMP decrease”.
